Assay results published in PubChem BioAssay (NCI).
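Test compounds were applied to cells in 96-well plates for 48 hours at 5 doses. GI50 is the concentration that inhibits growth by half. TGI marks complete inhibition of growth.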

Legend:
Experiment in all cases: NCI-60 cell line screen, 48 h
DU-145 prostate = system: DU-145 prostate
EKVX NSCLC = system: EKVX NSCLC
HCT-15 colon = system: HCT-15 colon
MOLT-4 leukemia = system: MOLT-4 leukemia
RPMI-8226 leukemia = system: RPMI-8226 leukemia
SK-MEL-2 melanoma = system: SK-MEL-2 melanoma
SNB-75 CNS = system: SNB-75 CNS
SW-620 colon = system: SW-620 colon
UACC-62 melanoma = system: UACC-62 melanoma
CCRF-CEM leukemia = system: CCRF-CEM leukemia

| SMILES | GI50 (DU-145 prostate) [µM] | TGI (DU-145 prostate) [µM] | GI50 (EKVX NSCLC) [µM] | TGI (EKVX NSCLC) [µM] | GI50 (HCT-15 colon) [µM] | TGI (HCT-15 colon) [µM] | GI50 (MOLT-4 leukemia) [µM] | TGI (MOLT-4 leukemia) [µM] | GI50 (RPMI-8226 leukemia) [µM] | TGI (RPMI-8226 leukemia) [µM] | GI50 (SK-MEL-2 melanoma) [µM] | TGI (SK-MEL-2 melanoma) [µM] | GI50 (SNB-75 CNS) [µM] | TGI (SNB-75 CNS) [µM] | GI50 (SW-620 colon) [µM] | TGI (SW-620 colon) [µM] | GI50 (UACC-62 melanoma) [µM] | TGI (UACC-62 melanoma) [µM] | GI50 (CCRF-CEM leukemia) [µM] | TGI (CCRF-CEM leukemia) [µM] |
| --- | --- | --- | --- | --- | --- | --- | --- | --- | --- | --- | --- | --- | --- | --- | --- | --- | --- | --- | --- | --- |
| Nc1ccn(Cc2ccc(C34CC5CC(CC(C5)C3)C4)c(O)c2)c(=O)n1 | > 100 | > 100 | 93 | > 100 | > 100 | > 100 | 54.4 | > 100 | > 100 | > 100 | 76.1 | > 100 | 24 | 84 | > 100 | > 100 | > 100 | > 100 | – | – |
| Nc1cc2cccc[n+]2c2cc(Cl)ccc12 | 30.7 | – | 34 | – | – | – | 4.22 | – | 2.86 | 29.9 | 0.0664 | 18.4 | 21.5 | 62.7 | 26.2 | – | 18.7 | 45.9 | 3.23 | 35.3 |
| Cc1occc1C(=S)Nc1ccc(Cl)c(COC(C)(C)C)c1 | – | 46.9 | – | 37.1 | – | 34.5 | – | 47.9 | – | 50.5 | – | 33.1 | – | – | – | 33.5 | – | 28.6 | – | 62.4 |
| COC(=O)[C@]12CC[C@@H](C)[C@H](C)[C@@H]1C1=CC[C@@H]3[C@@]4(C)C[C@@H](OC(C)=O)[C@H](O)[C@@](C)(COC(C)=O)[C@@H]4[C@H](O)C[C@@]3(C)[C@]1(C)CC2 | 3.48 | 11.9 | 2.22 | 6.69 | 2.51 | 9.01 | 1.66 | 4.24 | 2.4 | 8.06 | 2.84 | 7.39 | 2.35 | 11.7 | 2.75 | 8.76 | – | – | 2.54 | 6.34 |
| COc1ccc(C(=O)/C=C/c2ccc(/C=C/c3cc(OC)c(OC)c(OC)c3)cc2)cc1 | 10.2 | > 100 | – | – | 2.42 | > 100 | 3.49 | > 100 | 2.57 | 8.54 | 18.9 | > 100 | 5.5 | 47.7 | 4.5 | > 100 | 7.13 | > 100 | 4.15 | > 100 |
| ClCCn1c(CCl)nc2ccc(Cl)cc21 | 1.75 | 3.22 | – | – | 0.392 | 2.23 | 0.305 | 0.81 | 1.42 | 3.87 | 1.65 | 3.6 | 1.14 | 2.41 | 0.289 | 1.11 | 0.43 | 1.59 | 0.28 | 1.65 |
| O=C1c2ccccc2-c2c1c1ccccc1c(=O)n2CCCNCCCNCCCn1c2c(c3ccccc3c1=O)C(=O)c1ccccc1-2 | 0.0295 | 0.181 | 0.25 | 0.595 | 0.0605 | 0.196 | < 0.01 | – | – | – | 15 | 28.2 | 1.13 | 3.05 | < 0.01 | 0.15 | 0.0434 | 0.346 | < 0.01 | 0.175 |
| CCCCCn1c(=N)n(CC(O)COc2cccc(C)c2)c2ccccc21 (stereo unspecified) | 11.4 | 24 | – | – | 4.93 | 20.3 | 3.08 | 11.1 | 2.09 | 5.2 | 5.68 | 18.4 | 2.65 | 16.5 | 4.26 | 18.3 | 4.85 | 18.5 | 3.12 | 15.2 |
| C1CCSCCCCSCCCCSCCCCSC1 | – | > 100 | – | > 100 | – | > 100 | – | – | – | > 100 | – | > 100 | – | > 100 | – | > 100 | – | > 100 | – | – |
| CN1CCN(CCc2cccc(C(=O)c3cnn(-c4ccc(F)cc4)c3N)c2)CC1 | > 25 | > 25 | – | – | > 25 | > 25 | > 25 | > 25 | > 25 | > 25 | > 25 | > 25 | > 25 | > 25 | > 25 | > 25 | > 25 | > 25 | > 25 | > 25 |
| CCN(Cc1ccc(F)c(F)c1)c1ccc(CO)c(Cl)c1 | 14.8 | 38.2 | – | – | 6.63 | 25 | 16.8 | 47.6 | 2.44 | 28.9 | 4.08 | 19.5 | 2.99 | 19.5 | 0.753 | 21 | 0.12 | 0.919 | 15.1 | 47 |
| CCCN=Cc1cc(Cc2ccc(O)c(C=NCCC)c2)ccc1O | – | 31.1 | – | 26.4 | – | 12.3 | – | 3.71 | – | – | – | 9.59 | – | 9.67 | – | 15.9 | – | 22.7 | – | – |
| COC(=O)/C=C/C=C(c1ccccc1)c1ccccc1 | 5.48 | 52.8 | 4.06 | 32.8 | 3.79 | 42.1 | 14.2 | > 100 | 6.36 | 95.5 | – | – | 2.72 | 53.1 | 3.03 | > 100 | 5.43 | 25.4 | 6.48 | > 100 |
| C=C1C(=O)O[C@H]2[C@H]1CC/C(COC(=O)NCc1ccccc1OC)=C\CC[C@@]1(C)O[C@@H]21 | 0.698 | 1.98 | 1.98 | 6.39 | 1.04 | 2.47 | 2.53 | 6.13 | 1.77 | 6.24 | 1.71 | 3.89 | 2.44 | 13.2 | 0.768 | 3.16 | – | – | 0.482 | 4.7 |
| Cc1[c-]onc1C.Cc1[c-]onc1C.[Ag].[Ag].[NH-]S(=O)(=O)c1ccc(N=Nc2cc(N=Nc3ccc(S([NH-])(=O)=O)cc3)c3c(NC(=O)C(Cl)Cl)cccc3c2OC(=O)C(Cl)Cl)cc1 | 7.38 | 14.8 | – | – | 9.82 | 32.1 | 8.18 | 28.1 | 9.27 | 27.2 | 6.89 | 15.9 | 6.85 | 18.9 | 3.54 | 12.8 | 7.36 | 14.5 | 9.28 | 32.7 |
